In assay [1] the test system is embryonic rat muscle fibroblasts (EMF). Nature of the assay: Cell number of EMF after exposure to factors. It counts as cell-based. Particulars: after 5 days in culture, after a 24 h exposure.
Experimental: In vitro assay for chondrogenic activity: The purified recombinant proteins were tested for biological activity by the assay for enhanced incorporation of ^35S—SO4 into proteoglycan (8,11) by embryonic rat muscle fibroblasts (EMF). The EMF were seeded onto type I collagen coated 96 well plates, with an initial loading of 10^4 cell/well. The cells were grown to near confluence in alpha MEM, 10% FBS, 1% Pen/Strep in 5 days. At day 5 the growth media was replaced with conditioning media (CM), alpha MEM, 0.5% FBS, 1% Pen/Strep, and grown for an additional 24 h. Fresh CM containing the factors to be tested, was added at the concentrations noted. Four hours later, 1 μCi^35 S—SO4 in 10 μL sterile PBS was added per well, and incubation was continued for 20 h. The ^35S—SO4 incorporated into secreted proteoglycan was determined by precipitation of the proteoglycan with cetyl pyridinium chloride, as described above, followed by scintillation counting of the precipitate. The cell layer was trypsinized and the number of cells counted. Incorporation is presented as counts per minute per cell ×10^3. Recombinant human BMP2 (A kind gift from the Genetics Institute, Boston, Mass.) and the bioactive crude S100 fractions from rat incisor dentin (Amar et al., 1991) and/or bovine dentin (see Example 1) were used as the positive controls. […]
In assay [2] the test system is embryonic muscle fibroblasts (EMF). Nature of the assay: EMF [35S]-SO4-incorporation assay (sulfate incorporation into proteoglycan). It counts as cell-based, rat. Particulars: for activity in directing change in phenotype of embryonic rat muscle fibroblasts in vitro: compared with rBMP-2.
Text: Embryonic Muscle Fibroblast (EMF) Tissue Culture Assay Embryonic Muscle Fibroblasts. Rat EMF cells were derived from the thigh muscles of 20 day old Sprague Dawley rat embryos for use in primary tissue culture assays using a modification of the Koskinen harvesting technique (Koskinen et al., 1985), and grown in growth media (GM) [α-Modified Eagle's Medium (αMEM , Life Technologies, Gaithersburg, Md.), containing 10% heat inactivated fetal bovine serum (FBS), 1% Penicillin/Streptomycin (P/S)] in 5% O2/95% air at 37° C. EMFs were frozen at passage 2 (P-2).
Short Term Culture and Labeling with ^35SO4—Sulfate. The EMFs were plated (day 0) at a concentration of 10^4 cells per well in a 96 well plate which had been precoated with 100 μl of a 50 μg/ml solution of type I Rat Tail Collagen (Collaborative Biomedical Products). The cells were grown for 5 days in GM. On day 5, the cells were conditioned by removing the GM and adding conditioning media (CM) (αMEM containing 0.5% FBS, 1 % P/S) for 24 hours. This media was replaced with 100 μl of fresh CM, just prior to the addition of the test factors (hour 0). Test factors were added to test wells in triplicate. PBS/0. […] 1% BSA, were used as positive controls. Four hours following the addition of factors, the cells were labeled with 1 μCi ^35S—SO4/10 μl sterile PBS/well/96 well plate for 20 hours.
Assay of ^35S Sulfate Incorporation Into Proteoglycans in the Medium. In a departure from the Koskinen et al. (1985) protocol, glycosaminoglycan synthesis was routinely determined by the measurement of incorporation of ^35S sulfate (ICM Biomedical, Costa Mesa, Calif.) into the total cetylpyridinium chloride (CPC)-precipitable materials in the media without prior papain digestion. […] The total medium from each well (˜115 μl) was placed into a 13×100 mm glass culture tube. 150 μl of 100 μg/ml Chondroitin Sulfate A Sodium Salt (Sigma, St. Louis, Mo.) at 4° C. (buffer C), was added to each tube to serve as a carrier. 500 μl of 2.0 mM MgSO4. 4° C. (buffer B), was added. The mixture was incubated in a 37° C. water bath with shaking for 30 minutes. One ml of 1% CPC in 0.02M NaCl (buffer D) was added and incubated at 37° C. for 60 minutes in the water bath.
The samples were filtered through Whatman GF/A glass microfibre filters using a Millipore 12 well filtration device. The contents of each glass tube were individually poured into one of the wells under suction. The tube and filters were washed with buffer B 3 times. The filters were allowed to dry briefly, and were transferred to a scintillation vial. Then 5 ml scintillation cocktail was added per vial and the radioactive counts were measured in the scintillation counter.
In vitro assay for chondrogenic activity: The purified recombinant proteins were tested for biological activity by the assay for enhanced incorporation of ^35S—SO4 into proteoglycan (8,11) by embryonic rat muscle fibroblasts (EMF). The EMF were seeded onto type I collagen coated 96 well plates, with an initial loading of 10^4 cell/well. The cells were grown to near confluence in alpha MEM, 10% FBS, 1% Pen/Strep in 5 days. At day 5 the growth media was replaced with conditioning media (CM), alpha MEM, 0.5% FBS, 1% Pen/Strep, and grown for an additional 24 h. Fresh CM containing the factors to be tested, was added at the concentrations noted. Four hours later, 1 μCi^35 S—SO4 in 10 μL sterile PBS was added per well, and incubation was continued for 20 h. The ^35S—SO4 incorporated into secreted proteoglycan was determined by precipitation of the proteoglycan with cetyl pyridinium chloride, as described above, followed by scintillation counting of the precipitate. The cell layer was trypsinized and the number of cells counted.
For assay [3], the system named is quadriceps of Long-Evans rats. Nature of the assay: In vivo osteogenic activity, poly(lactide)-poly(glycolide) scaffold implants in quadriceps. Details: species or system rat. Particulars: for mineral deposition in implants, Alizarin Red and von Kossa staining / radiograph of implants after excision, mineralization pattern / vascularization, cell infiltration and extracellular matrix in implants (H&E) / ingrowth of capillaries and extracellular matrix formation, r(A-4) versus rA4 implants: 4 weeks; for vascularization, cell infiltration and extracellular matrix in implants (H&E): FIG. 15; for activity in inducing onset of osteogenesis in muscle implants in vivo: compared with rBMP-2. Here is the method:
In vivo osteogenic activity. The recombinant proteins, Emdogain and controls were each included in a bioabsorbable polymer matrix implants. The implants were prepared in poly (lactide)-poly(glycolide) scaffolds by the procedure of Whang et al. (1998) with 167 μg per implant. Implants were placed in the quadriceps of the hind legs of 100 g, 4 week old, male Long-Evans rats. Each animal received a negative control implant containing 167 μg of BSA in PBS. The implants were kept in place for 28 days. The implants were removed and radiographed, then they were fixed in 4% paraformaldehyde, dehydrated in graded ethanol and embedded in paraffin. Sections (7μ thick) were cut and stained with either Von Kossa or Alizarin Red dyes, both of which can indicate the presence of mineralized deposits containing divalent cations. To assure that the stains seen were calcific deposits, serial sections were treated with 5% EGTA for 10 min before staining.

“Also recorded” adds a separate entry of the source.

Regarding “r(A-4): recombinant polypeptide SEQ ID NO:5, secreted form of rat amelogenin gene splice product, exons 2, 3, 5, 6d and 7 (MPLPPHPGSPGYINLSYEVLTPLKWYQSMIRQPPLSPILPELPLEAWPATDKTKREEVD; Recombinant rat amelogenin)”, in assay [1], the “cell number (growth factor action)” value is reported as “did not increase”. In addition, the “activity in directing change in phenotype of embryonic rat muscle fibroblasts in vitro” value in assay [2] is on record as “equivalent to rBMP-2”. For the same molecule, in assay [2] (monolayer culture, FIG. 13), the “concentration as low as which production of 35S-SO4-labeled proteoglycan was stimulated” value was 1 ng/mL and the “concentration as low as which production of 35S-SO4-labeled proteoglycan was stimulated (molar)” value is approximately 140 pM. In assay [3] (167 μg per implant), the “alkaline phosphatase in implants” value is on record as “positive”; the “mineral deposition in implants, Alizarin Red and von Kossa staining” value (“mineral deposition in implants” below) was “stained strongly”; the “radiograph of implants after excision, mineralization pattern” value is given as “heavier mineralization around the periphery”; the “vascularization, cell infiltration and extracellular matrix in implants (H&E)” value was “vascularized and filled with extracellular matrix; also recorded: infiltrated by many cells, and an abundant network of capillaries”. In addition, the “mineral deposition in implants” value in assay [3] (167 μg per implant, listed as (A-4)) is recorded as “highly positive for deposition of mineral”. In assay [3], the “ingrowth of capillaries and extracellular matrix formation, r(A-4) versus rA4 implants” value is listed as “more prominent”; the “activity in inducing onset of osteogenesis in muscle implants in vivo” value is given as “equivalent to rBMP-2”.

B1: rA4: recombinant polypeptide SEQ ID NO:6, secreted form of rat amelogenin gene splice product, exons 2, 3, 4, 5, 6d and 7 (protein)
chain: MPLPPHPGSPGYINLSYEKSHSQAINTDRTALVLTPLKWYQSMIRQPPLSPILPELPLEAWPATDKTKREEVD
modifications: Recombinant rat amelogenin
Take B1: the “cell number (growth factor action)” value in assay [1] is recorded as “increase”. For the same molecule, the “activity in directing change in phenotype of embryonic rat muscle fibroblasts in vitro” value in assay [2] was “equivalent to rBMP-2”. Further, the “stimulation of 35S-SO4-labeled proteoglycan production at low concentrations, relative to r(A-4)” value in assay [2] (equivalent low (ng/ml) concentrations) is “less active”. Besides, in assay [2] (rhBMP-2 at 10 ng/ml), the “effect on sulfate incorporation compared with rhBMP-2 positive control” value is “quite comparable”. Moreover, in assay [3] (167 μg per implant), the “mineral deposition in implants” value is “calcified to a lesser extent”; the “radiograph of implants after excision, mineralization pattern” value is “more punctate deposition of mineral”; the “vascularization, cell infiltration and extracellular matrix in implants (H&E)” value was “vascularized and filled with extracellular matrix; also recorded: vascularized but more sparsely than the r(A-4) implants”. For the same molecule, the “mineral deposition in implants” value in assay [3] (167 μg per implant, listed as A4) is given as “some focal deposits of mineral”. In assay [3], the “ingrowth of capillaries and extracellular matrix formation, r(A-4) versus rA4 implants” value was “islands of capillaries, and the formation of a surrounding extracellular matrix was also evident”; the “activity in inducing onset of osteogenesis in muscle implants in vivo” value is reported as “equivalent to rBMP-2”.

B2: rB4: recombinant full-length rat amelogenin, exons 2, 3, 4, 5, 6 and 7 (protein, UniProt P63278 1-210, looked up)
chain: MGTWILFACLLGAAFAMPLPPHPGSPGYINLSYEKSHSQAINTDRTALVLTPLKWYQSMIRQPYPSYGYEPMGGWLHHQIIPVLSQQHPPSHTLQPHHHLPVVPAQQPVAPQQPMMPVPGHHSMTPTQHHQPNIPPSAQQPFQQPFQPQAIPPQSHQPMQPQSPLHPMQPLAPQPPLPPLFSMQPLSPILPELPLEAWPATDKTKREEVD
modifications: full-length
As to B2, the “mineral deposition in implants” value in assay [3] (167 μg per implant) was “inactive”.

(Values after patent US6677306B1, “Chondrogenic and osteogenic inducing molecule” (Northwestern University, priority 1998, dated 2004).)
